Series [1] is described as follows: pKa determination by potentiometric titration. The series is classed as physicochemical. On the procedure:
The pKa values of ligands were determined by potentiometric titration when a ligand concentration >1×10^−2 M in water could be prepared. In a typical experiment, the sample solution (1.00×10^−2 M) was prepared by the following method: Apo7041 (125.4 mg) was weighed into a 50 mL volumetric flask, and about 40 mL of 0.1 M NaCl was added. The mixture was sonicated for 10 min to give a clear colorless solution. More of the 0.1 M NaCl was added to volume and the resulting solution was vortexed to mix. 40 mL of the solution was transferred into a T70 titration cell by using a 10 mL digital pipet A 6.000 N sodium hydroxide solution (127 μL, 1.9 equiv) was added, and the pH (11.82) of the solution was recorded. The solution was allowed to equilibrate at 22° C. for 5 min.
The solution was then titrated against a 6.000 N hydrochloric acid solution at 22° C. by using a Mettler Toledo T70 autotitrator, until the pH reached 1.5. The volume of acid added and the pH reading were recorded. Thus, 501 measurements were taken for this experiment.
The data set of pH vs. acid volume was analyzed using Hyperquad 2000 software (version 2.1, Peter Gans, University of Leeds). The pKa values were obtained using the model: L^−+H^+⇄LH (pKa1), LH+H^+⇄LH2^+, and LH2^++H^+⇄LH3^2+ (pKa3).
The pKa values of Apo7041 in the same mixed solvent were also determined by potentiometric titration using the procedure described in Example 1.

Series [2] in a line: Stepwise formation constants for Cu-ligand system by potentiometric titration. The class given is physicochemical. The note with it: for pCu^2+: pH 7.4, ligand 10 μM, metal 1 μM. As for the experimental part: In a typical experiment, the sample solution was prepared by the following method: Apo7041 (126.1 mg, 0.50 mmol) was weighed into a 50 mL volumetric flask, and about 35 mL of a mixed solvent (0.1 M NaCl aqueous:MeOH, 1:1, v:v) was added. The mixture was sonicated for 10 min to give a clear colorless solution. The copper stock solution (atomic absorption standard, Aldrich, 6.33 mL, 0.10 mmol) was pipetted into the solution. More of the mixed solvent was added to volume and the resulting solution was vortexed to mix. The molar ratio between the total copper and the total Apo7041 was 1/5. 40 mL of the solution was transferred into a T70 titration cell by using a 10 mL digital pipet. A 6.000 N sodium hydroxide solution (300 μL) was added, and the pH (12.17) of the solution was recorded. The solution was allowed to equilibrate at 22° C. for 5 min.
The solution was then titrated against a 6.000 N hydrochloric acid solution at 22° C. by using a Mettler Toledo T70 autotitrator, until the pH reached 1.5. The volume of acid added and the pH reading were recorded. Thus, 533 measurements were taken for this experiment.
The data set of pH vs. acid volume for Cu-Apo7041 system was analyzed using Hyperquad 2000 software (version 2.1, Peter Gans, University of Leeds). The formation constants for Cu-Apo7041 system were optimized using the model shown in the first column of Table 29C. The results are shown in the second and third column.
pM^n+ is defined as −log [M(H2O)m]^n+ at physiological conditions, i.e.: pH 7.4, a ligand concentration of 10 μM, and a metal concentration of 1 μM. To calculate pM^n+ for a MLn system, βn and pKa values are needed (βn are the formation constants for M^n++n L^−⇄MLn; pKa are the equilibrium constants for L^−+n H^+⇄LHn^(n-1)+). The pM^n+ is calculated using the HySS software (HYSS© 2000 Protonic Software).

Series [3] can be described thus: pKa determination by potentiometric titration. The class given is physicochemical. The note with it: 0.1M aqueous NaCl/MeOH, 1/1, v/v.
Series [4] is described as follows: Pharmacokinetics following oral administration to rats. The series is classed as in vivo, male Sprague Dawley rats. The note with it: rat, oral 50 mg/kg in 0.5% CMC; for Brain AUC_D_obs / Brain Cmax_D / Plasma AUC_D_obs / Plasma Cmax_D: dose-normalized. As for the experimental part: Adult male Sprague Dawley rats (275-325 g, Charles River Laboratories, Saint Constant, Quebec) were orally dosed with 50 mg/kg of test compound (Apo7323, Apo7433, Apo7435 or Apo7448) suspended in 0.5% carboxymethylcellulose (CMC) in water. For each test compound, samples were obtained from the plasma and brain of three animals per time point, at 0 (dosed with 0.5% CMC), 0.25, 0.5, 1, 2, 4, 8 and 12 h following administration. The concentration of the compound in rat plasma and brain samples was determined by HPLC-UV. Pharmacokinetic parameters were computed using the PKPlus Module in GastroPlus® ver. 8.0 (Simulations Plus Inc., Lancaster, Calif.). Calculation method: linear trapezoidal with linear interpolation.

In another series the test system is SV-NRA cells. As to the kind of experiment: MPP+ treated SV-NRA cell viability (MTT). The series is classed as cell-based. The note with it: 5 mM MPP+ treated SV-NRA cells, 20 μM, 24 h, p<0.05. As for the experimental part:
SV-NRAs cells were plated in a 96-well plate at a density of 10,000 cells/well in 100 μL of DME […], high glucose 1× liquid (Sigma) supplemented with 10% heat-inactivated FBS and 1× antibiotic/antimycotic solution (Sigma). On the next day, the cells were washed with EMEM media (Eagle's minimal essential media; phenol red, serum and glutamine free) and treated for 24 h with 5 mM MPP^+ (1-methyl-4-phenylpyridinium) in EMEM media in the presence or absence of a tested iron chelating compound. All compounds were tested at the following concentrations: 10 μM, 20 μM, and 40 μM. After 24 h of incubation, cell viability was determined with MTT ((3-(4,5-Dimethylthiazol-2-yl)-2,5-diphenyltetrazolium bromide, a yellow tetrazole) assay which measures mitochondrial activity (Carmichael et al. Cancer Research 1987, 47, 936-942). MTT solution (10 μL, 5 mg/mL) was added to the wells and incubated for 2 h. Formazan product was solubilized with 100 μL of 10% SDS (sodium dodecyl sulphate) in 0.01M HCl. Optical density was determined at 570 nm using Multiscan Ascent plate reader (Labsystems) and data collected were corrected for background signal measured at 650 nm. All data are expressed as % of control.
Co-treatment with iron chelators protected the cells from MPP^+ toxicity.

Setting [5] is: 0.1M aqueous NaCl/MeOH, 1/1, v/v.
[6] abbreviates: 0.1M aqueous NaCl/MeOH, 1/1, v/v, listed as drawing 104.
Where [7] appears, read: potentiometric, 0.1 M NaCl, 22° C.
[8] abbreviates: 0.1M aqueous NaCl (Table 1, Fe3+ chelation, footnote b).

Turning to `CN(C)C(c1c(O)c(=O)ccn1C)C(F)(F)F` (centres unmarked) [Apo7041, 2-[1-(dimethylamino)-2,2,2-trifluoroethyl]-3-hydroxy-1-methylpyridin-4(1H)-one], in series [1] (0.1 M NaCl), the “pKa1 + pKa2” value is listed as 12.91 and the “pKa1 + pKa2 + pKa3” value amounted to 14.57. For the same compound, in series [1] (setting [5]), the “pKa1 + pKa2 + pKa3” value was found to be 15.3 and the pKa3 result is reported as “pKa3 = 2.0”. Further, in series [1] (setting [6]), the pKa1 result is given as “pKa1 = 10.1”. In series [1] (setting [7]), this compound registered a pKa1 of 9.39, a pKa2 of 3.52 and a pKa3 of 1.66. Further, in series [2] (setting [5]), the “Log β120 (Cu2+)” value is on record as 17.3, the “Log β121 (Cu2+)” value was found to be 23.0, the “Log β122 (Cu2+)” value is 27.9 and the “Logβ111 (Cu2+)” value was “Logβ111 = 14.1”. For the same compound, in series [2] (setting [6]), the “Log β120 (Cu2+)” value is listed as “Logβ120 = 17.3”, the “Log β121 (Cu2+)” value is “Logβ121 = 23.0” and the “Log β122 (Cu2+)” value was “Logβ122 = 27.9”. Besides, the “pCu^2+” value in series [2] is “pCu^2+ = 7.7”. Further, in series [3], the pKa1 stood at 10.1, the “pKa1 + pKa2” value is listed as 13.3 and the pKa2 result is reported as “pKa2 = 3.2”.

For the compound `O=c1ccn(CC(F)(F)F)c(CN2CCOCC2)c1O` [Apo7323, 3-hydroxy-2-(morpholinomethyl)-1-(2,2,2-trifluoroethyl)pyridin-4(1H)-one], in series [4], the CL came out at 33.2 mL/min/kg, the “Brain AUC_D_obs” value was determined as 1.010 kg·µg·h/mL/mg, the “Brain Cmax_D” value was 0.218 kg·µg/mL/mg and the “Plasma AUC_D_obs” value stood at 1.630 kg·µg·h/mL/mg. In addition, the “Plasma Cmax_D” value in series [4] amounted to 0.400 kg·µg/mL/mg.

Regarding `Cc1c(O)c(=O)c(C(N2CCOCC2)C(F)(F)F)cn1C` (centres unmarked) [Apo7435, 3-hydroxy-1,2-dimethyl-5-(2,2,2-trifluoro-1-morpholinoethyl)pyridin-4(1H)-one], in series [4], the CL amounted to 110 mL/min/kg, the “Brain AUC_D_obs” value was determined as 0.122 kg·µg·h/mL/mg, the “Brain Cmax_D” value was 0.102 kg·µg/mL/mg and the “Plasma AUC_D_obs” value was 0.516 kg·µg·h/mL/mg. Further, the “Plasma Cmax_D” value in series [4] amounted to 0.312 kg·µg/mL/mg.

In the case of `Cc1c(O)c(=O)ccn1C` [Deferiprone, 3-hydroxy-1,2-dimethylpyridin-4(1H)-one, reference compound], in series [1] (setting [8]), the pKa1 entry is reported as “pKa1 = 9.92” and the pKa2 entry is given as “pKa2 = 3.55”. Further, in series [2] (setting [5]), the “Log β120 (Cu2+)” value is recorded as 20.5, the “Logβ1 (Cu2+)” value is “Logβ1 = 10.8” and the “Logβ2 (Cu2+)” value is on record as “Logβ2 = 20.5”. The “pCu^2+” value in series [2] is listed as “pCu^2+ = 9.9”. In the series with SV-NRA cells, the “increase in cell viability” value is on record as “about 20%”. In series [3], the pKa1 entry was “pKa1 = 10.6” and the pKa2 result is “pKa2 = 4.0”.

The values are drawn from patent publication US9938240B2, “Fluorinated derivatives of 3-hydroxypyridin-4-ones” (Apotex Technologies Inc., priority 2009, dated 2018).
